This note sets out measurements from US20260001888A1, “PYRAZOLOPYRIMIDINE PDE9 INHIBITORS” (Merck Sharp & Dohme LLC, priority 2018, published 2026).

The term pKi denotes −log10 of the Ki, conventionally taken in molar units.

This test concerns the target Human PDE9 (PDE9A2) (Homo sapiens (Human), UniProt O76083). Put plainly: PDE9 IMAP fluorescence polarization (FP) inhibition assay. The following applies: apparent inhibition constant; human PDE9A2, FAM-cGMP substrate 50 nM, room temperature. Type of test: biochemical. In a few lines:
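N-terminal GST-tagged full-length PDE9A2 membrane prep (0.5 ng/ml final) preincubated 30 min with compound at room temperature, then 50 nM FAM-cGMP added for 60 min; IMAP binding reagent stops reaction, FP read after 1 h. Controls: known PDE9 inhibitor (100%), 1% DMSO (0%). KI from four-parameter fit.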
(In general: Polarisation of emitted light reports the rotation of a fluorescent probe.)

Structures are written as SMILES. pKi: −log10 of the molar value.

Chain of Human PDE9 (PDE9A2) (O76083 other isoform, or with tags, fused parts or gaps): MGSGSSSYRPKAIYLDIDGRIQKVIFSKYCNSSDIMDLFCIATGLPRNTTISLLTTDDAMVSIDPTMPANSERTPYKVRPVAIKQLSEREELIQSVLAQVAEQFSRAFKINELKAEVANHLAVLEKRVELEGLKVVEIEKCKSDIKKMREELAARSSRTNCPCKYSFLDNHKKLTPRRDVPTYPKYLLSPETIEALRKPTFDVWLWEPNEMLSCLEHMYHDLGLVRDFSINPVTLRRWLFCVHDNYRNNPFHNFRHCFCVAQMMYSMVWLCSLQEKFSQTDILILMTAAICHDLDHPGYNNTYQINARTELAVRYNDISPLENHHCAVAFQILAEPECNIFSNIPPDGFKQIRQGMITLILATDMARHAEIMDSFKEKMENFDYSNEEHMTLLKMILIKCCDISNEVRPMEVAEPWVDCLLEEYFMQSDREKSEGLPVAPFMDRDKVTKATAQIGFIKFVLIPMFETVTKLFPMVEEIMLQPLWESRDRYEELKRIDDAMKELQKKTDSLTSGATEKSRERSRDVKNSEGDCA

Consider `CC(c1ccc(C(F)(F)F)nc1)n1nc(C#N)c2c(=O)[nH]c(N3CCC3c3ccc(F)cc3)nc21` (single isomer, unassigned) [Example 58, 6-[2-(4-fluorophenyl)azetidin-1-yl]-4-oxo-1-[1-[6-(trifluoromethyl)-3-pyridyl]ethyl]-5H-pyrazolo[3,4-d]pyrimidine-3-carbonitrile], for which the pKi is 8.11.

Turning to `CCC(c1ncc(F)cn1)N(C)c1nc2c(c(C#N)nn2C(C)c2ccc(C3CC3)nc2)c(=O)[nH]1` (single isomer, unassigned) [Example 63, 1-[1-(6-cyclopropyl-3-pyridyl)ethyl]-6-[1-(5-fluoropyrimidin-2-yl)propyl-methyl-amino]-4-oxo-5H-pyrazolo[3,4-d]pyrimidine-3-carbonitrile], the pKi was 7.83.

On to `CCC(c1ncc(F)cn1)N(C)c1nc2c(c(C#N)nn2C(C)c2ccc(C3CC3)nc2)c(=O)[nH]1` (single isomer, unassigned) [Example 64, 1-[1-(6-cyclopropyl-3-pyridyl)ethyl]-6-[1-(5-fluoropyrimidin-2-yl)propyl-methyl-amino]-4-oxo-5H-pyrazolo[3,4-d]pyrimidine-3-carbonitrile], for which the pKi was 7.92.

Regarding `CCC(c1ncc(F)cn1)N(C)c1nc2c(c(C#N)nn2C(C)c2ccc(C3CC3)nc2)c(=O)[nH]1` (single isomer, unassigned) [Example 65, 1-[1-(6-cyclopropyl-3-pyridyl)ethyl]-6-[1-(5-fluoropyrimidin-2-yl)propyl-methyl-amino]-4-oxo-5H-pyrazolo[3,4-d]pyrimidine-3-carbonitrile], the pKi was 10.52.

Take `CCC(c1ncc(F)cn1)N(C)c1nc2c(c(C#N)nn2C(C)c2ccc(C3CC3)nc2)c(=O)[nH]1` (single isomer, unassigned) [Example 66, 1-[1-(6-cyclopropyl-3-pyridyl)ethyl]-6-[1-(5-fluoropyrimidin-2-yl)propyl-methyl-amino]-4-oxo-5H-pyrazolo[3,4-d]pyrimidine-3-carbonitrile]: the pKi was 9.22.

`CCC(c1ncc(F)cn1)N(C)c1nc2c(c(C#N)nn2C(C)c2ccc(C3CC3)cc2)c(=O)[nH]1` (single isomer, unassigned) [Example 67, 1-[1-(4-cyclopropylphenyl)ethyl]-6-[1-(5-fluoropyrimidin-2-yl)propyl-methyl-amino]-4-oxo-5H-pyrazolo[3,4-d]pyrimidine-3-carbonitrile]: the pKi was 9.15.

Take `CCC(c1ncc(F)cn1)N(C)c1nc2c(c(C#N)nn2C(C)c2ccc(C3CC3)cc2)c(=O)[nH]1` (single isomer, unassigned) [Example 68, 1-[1-(4-cyclopropylphenyl)ethyl]-6-[1-(5-fluoropyrimidin-2-yl)propyl-methyl-amino]-4-oxo-5H-pyrazolo[3,4-d]pyrimidine-3-carbonitrile]: the pKi was 9.14.

With `CCC(c1ncc(F)cn1)N(C)c1nc2c(c(C#N)nn2C(C)c2ccc(C3CC3)cc2)c(=O)[nH]1` (single isomer, unassigned) [Example 69, 1-[1-(4-cyclopropylphenyl)ethyl]-6-[1-(5-fluoropyrimidin-2-yl)propyl-methyl-amino]-4-oxo-5H-pyrazolo[3,4-d]pyrimidine-3-carbonitrile], the pKi is 7.83.

As to `CCC(c1ncc(F)cn1)N(C)c1nc2c(c(C#N)nn2C(C)c2ccc(C3CC3)cc2)c(=O)[nH]1` (single isomer, unassigned) [Example 70, 1-[1-(4-cyclopropylphenyl)ethyl]-6-[1-(5-fluoropyrimidin-2-yl)propyl-methyl-amino]-4-oxo-5H-pyrazolo[3,4-d]pyrimidine-3-carbonitrile], the pKi is 10.70.

`CCC(Nc1nc2c(c(C#N)nn2C(C)c2ccc(C(F)(F)F)nc2)c(=O)[nH]1)c1ncccn1` (single isomer, unassigned) [Example 71, 4-Oxo-6-((1-(pyrimidin-2-yl)propyl)amino)-1-(1-(6-(trifluoromethyl)pyridin-3-yl)ethyl)-4,5-dihydro-1H-pyrazolo[3,4-d]pyrimidine-3-carbonitrile]: the pKi was 7.93.

Regarding `CCC(Nc1nc2c(c(C#N)nn2C(C)c2ccc(C(F)(F)F)nc2)c(=O)[nH]1)c1ncccn1` (single isomer, unassigned) [Example 72, 4-Oxo-6-((1-(pyrimidin-2-yl)propyl)amino)-1-(1-(6-(trifluoromethyl)pyridin-3-yl)ethyl)-4,5-dihydro-1H-pyrazolo[3,4-d]pyrimidine-3-carbonitrile], the pKi is 7.66.

As to `CCC(Nc1nc2c(c(C#N)nn2C(C)c2ccc(C(F)(F)F)nc2)c(=O)[nH]1)c1ncccn1` (single isomer, unassigned) [Example 73, 4-Oxo-6-((1-(pyrimidin-2-yl)propyl)amino)-1-(1-(6-(trifluoromethyl)pyridin-3-yl)ethyl)-4,5-dihydro-1H-pyrazolo[3,4-d]pyrimidine-3-carbonitrile], the pKi was 9.60.

Take `CCC(Nc1nc2c(c(C#N)nn2C(C)c2ccc(C(F)(F)F)nc2)c(=O)[nH]1)c1ncccn1` (single isomer, unassigned) [Example 74, 4-Oxo-6-((1-(pyrimidin-2-yl)propyl)amino)-1-(1-(6-(trifluoromethyl)pyridin-3-yl)ethyl)-4,5-dihydro-1H-pyrazolo[3,4-d]pyrimidine-3-carbonitrile]: the pKi was 7.94.

Consider `CCC(c1ncc(F)cn1)N(C)c1nc2c(c(C#N)nn2C(C)c2ccc(C(F)(F)F)nc2)c(=O)[nH]1` (single isomer, unassigned) [Example 75, 6-((1-(5-fluoropyrimidin-2-yl)propyl)(methyl)amino)-4-oxo-1-(1-(6-(trifluoromethyl)pyridin-3-yl)ethyl)-4,5-dihydro-1H-pyrazolo[3,4-d]pyrimidine-3-carbonitrile], for which the pKi is 8.48.

With `CCC(c1ncc(F)cn1)N(C)c1nc2c(c(C#N)nn2C(C)c2ccc(C(F)(F)F)nc2)c(=O)[nH]1` (single isomer, unassigned) [Example 76, 6-((1-(5-fluoropyrimidin-2-yl)propyl)(methyl)amino)-4-oxo-1-(1-(6-(trifluoromethyl)pyridin-3-yl)ethyl)-4,5-dihydro-1H-pyrazolo[3,4-d]pyrimidine-3-carbonitrile], the pKi is 7.26.

In the case of `CCC(c1ncc(F)cn1)N(C)c1nc2c(c(C#N)nn2C(C)c2ccc(C(F)(F)F)nc2)c(=O)[nH]1` (single isomer, unassigned) [Example 77, 6-((1-(5-fluoropyrimidin-2-yl)propyl)(methyl)amino)-4-oxo-1-(1-(6-(trifluoromethyl)pyridin-3-yl)ethyl)-4,5-dihydro-1H-pyrazolo[3,4-d]pyrimidine-3-carbonitrile], the pKi is 9.57.

Regarding `CCC(c1ncc(F)cn1)N(C)c1nc2c(c(C#N)nn2C(C)c2ccc(C(F)(F)F)nc2)c(=O)[nH]1` (single isomer, unassigned) [Example 78, 6-((1-(5-fluoropyrimidin-2-yl)propyl)(methyl)amino)-4-oxo-1-(1-(6-(trifluoromethyl)pyridin-3-yl)ethyl)-4,5-dihydro-1H-pyrazolo[3,4-d]pyrimidine-3-carbonitrile], the pKi was 7.47.

With `CC(c1ccc(C(F)(F)F)nc1)n1nc(C#N)c2c(=O)[nH]c(CCc3ncccn3)nc21` (single isomer, unassigned) [Example 79, 4-oxo-6-(2-(pyrimidin-2-yl)ethyl)-1-(1-(6-(trifluoromethyl)pyridin-3-yl)ethyl)-4,5-dihydro-1H-pyrazolo[3,4-d]pyrimidine-3-carbonitrile], the pKi was 8.40.

In the case of `CC(c1ccc(C(F)(F)F)nc1)n1nc(C#N)c2c(=O)[nH]c(CCc3ncccn3)nc21` (single isomer, unassigned) [Example 80, 4-oxo-6-(2-(pyrimidin-2-yl)ethyl)-1-(1-(6-(trifluoromethyl)pyridin-3-yl)ethyl)-4,5-dihydro-1H-pyrazolo[3,4-d]pyrimidine-3-carbonitrile], the pKi is 6.92.

For the compound `CC(c1ccc(C(F)(F)F)nc1)n1nc(C#N)c2c(=O)[nH]c(CCc3ncc(C4CC4)cn3)nc21` (single isomer, unassigned) [Example 81, 6-(2-(5-cyclopropylpyrimidin-2-yl)ethyl)-4-oxo-1-(1-(6-(trifluoromethyl)pyridin-3-yl)ethyl)-4,5-dihydro-1H-pyrazolo[3,4-d]pyrimidine-3-carbonitrile], the pKi was 9.30.

For `CC(c1ccc(C(F)(F)F)nc1)n1nc(C#N)c2c(=O)[nH]c(CCc3ncc(C4CC4)cn3)nc21` (single isomer, unassigned) [Example 82, 6-(2-(5-cyclopropylpyrimidin-2-yl)ethyl)-4-oxo-1-(1-(6-(trifluoromethyl)pyridin-3-yl)ethyl)-4,5-dihydro-1H-pyrazolo[3,4-d]pyrimidine-3-carbonitrile], the pKi is 7.79.

In the case of `CC(Cc1nc2c(c(C#N)nn2C(C)c2ccc(C(F)(F)F)nc2)c(=O)[nH]1)c1ncccn1` (single isomer, unassigned) [Example 83, 4-oxo-6-(2-(pyrimidin-2-yl)propyl)-1-(1-(6-(trifluoromethyl)pyridin-3-yl)ethyl)-4,5-dihydro-1H-pyrazolo[3,4-d]pyrimidine-3-carbonitrile], the pKi is 7.22.

Turning to `CC(Cc1nc2c(c(C#N)nn2C(C)c2ccc(C(F)(F)F)nc2)c(=O)[nH]1)c1ncccn1` (single isomer, unassigned) [Example 84, 4-oxo-6-(2-(pyrimidin-2-yl)propyl)-1-(1-(6-(trifluoromethyl)pyridin-3-yl)ethyl)-4,5-dihydro-1H-pyrazolo[3,4-d]pyrimidine-3-carbonitrile], the pKi is 6.95.

Take `CC(Cc1nc2c(c(C#N)nn2C(C)c2ccc(C(F)(F)F)nc2)c(=O)[nH]1)c1ncccn1` (single isomer, unassigned) [Example 85, 4-oxo-6-(2-(pyrimidin-2-yl)propyl)-1-(1-(6-(trifluoromethyl)pyridin-3-yl)ethyl)-4,5-dihydro-1H-pyrazolo[3,4-d]pyrimidine-3-carbonitrile]: the pKi is 8.93.
